Reference: the supplement of paper PMC6045584
± gives the standard deviation of the averaged measurements.

Key:
[1] = compound: CNCc1ccc(-c2[nH]c3cc(F)cc4c3c2CCNC4=O)cc1; assay: surviving fraction relative to DMSO-only wells; higher = less growth inhibition; conditions: exposure time: 5 days
Summary of the method: (§1)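 For each tumour cell line, log-phase cells were put into 384-well plates at 250–500 cells per well, then after 24 hours exposed continuously for five days to inhibitors at 0.5, 1, 5, 10, 50, 100, 500 and 1000 nM. Viability was assessed by CellTiter-Glo luminescence, with surviving fraction expressed relative to the median of DMSO-only wells. Lines were screened three times and retained only if replicate Pearson r exceeded 0.7 and median Z' exceeded 0.3.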

[2] = compound: COc1cc2c(Oc3ccc(NC(=O)C4(C(=O)Nc5ccc(F)cc5)CC4)cc3F)ccnc2cc1OCCCN1CCOCC1 [FORETINIB]; assay: as above; conditions: exposure time: 5 days
Summary of the method: as §1

## CAL72 BONE
[1]; 0.5 nM
  surviving fraction: 1.09 ± 0.041
[1]; 1 nM
  surviving fraction: 1.072 ± 0.0085
[1]; 5 nM
  surviving fraction: 1.1 ± 0.026
[1]; 10 nM
  surviving fraction: 1.08 ± 0.016
[1]; 50 nM
  surviving fraction: 0.999 ± 0.073
[1]; 100 nM
  surviving fraction: 0.961 ± 0.075
[1]; 500 nM
  surviving fraction: 0.962 ± 0.032
[1]; 1000 nM
  surviving fraction: 0.902 ± 0.019
[2]; 0.5 nM
  surviving fraction: 1.1 ± 0.12
[2]; 1 nM
  surviving fraction: 1.08 ± 0.12
[2]; 5 nM
  surviving fraction: 1.13 ± 0.016
[2]; 10 nM
  surviving fraction: 1.11 ± 0.12
[2]; 50 nM
  surviving fraction: 1.17 ± 0.069
[2]; 100 nM
  surviving fraction: 1.13 ± 0.041
[2]; 500 nM
  surviving fraction: 0.655 ± 0.13
[2]; 1000 nM
  surviving fraction: 0.326 ± 0.088

## CAL120 BREAST
[1]; 0.5 nM
  surviving fraction: 1.04 ± 0.047
[1]; 1 nM
  surviving fraction: 0.995 ± 0.075
[1]; 5 nM
  surviving fraction: 0.984 ± 0.044
[1]; 10 nM
  surviving fraction: 1.01 ± 0.043
[1]; 50 nM
  surviving fraction: 0.945 ± 0.026
[1]; 100 nM
  surviving fraction: 0.929 ± 0.056
[1]; 500 nM
  surviving fraction: 0.926 ± 0.057
[1]; 1000 nM
  surviving fraction: 0.918 ± 0.043
[2]; 0.5 nM
  surviving fraction: 0.95 ± 0.035
[2]; 1 nM
  surviving fraction: 1.01 ± 0.033
[2]; 5 nM
  surviving fraction: 0.997 ± 0.026
[2]; 10 nM
  surviving fraction: 0.993 ± 0.042
[2]; 50 nM
  surviving fraction: 0.997 ± 0.069
[2]; 100 nM
  surviving fraction: 0.97 ± 0.014
[2]; 500 nM
  surviving fraction: 0.683 ± 0.03
[2]; 1000 nM
  surviving fraction: 0.562 ± 0.016

## CASKI CERVIX
[1]; 0.5 nM
  surviving fraction: 0.893 ± 0.022
[1]; 1 nM
  surviving fraction: 0.968 ± 0.014
[1]; 5 nM
  surviving fraction: 0.992 ± 0.015
[1]; 10 nM
  surviving fraction: 0.939 ± 0.024
[1]; 50 nM
  surviving fraction: 0.89 ± 0.03
[1]; 100 nM
  surviving fraction: 0.898 ± 0.077
[1]; 500 nM
  surviving fraction: 0.923 ± 0.12
[1]; 1000 nM
  surviving fraction: 0.848 ± 0.034
[2]; 0.5 nM
  surviving fraction: 0.902 ± 0.072
[2]; 1 nM
  surviving fraction: 0.929 ± 0.013
[2]; 5 nM
  surviving fraction: 0.962 ± 0.019
[2]; 10 nM
  surviving fraction: 0.943 ± 0.018
[2]; 50 nM
  surviving fraction: 0.988 ± 0.062
[2]; 100 nM
  surviving fraction: 0.976 ± 0.06
[2]; 500 nM
  surviving fraction: 0.322 ± 0.026
[2]; 1000 nM
  surviving fraction: 0.188 ± 0.0057

## CHLA90 AUTONOMIC GANGLIA
[1]; 0.5 nM
  surviving fraction: 0.97 ± 0.049
[1]; 1 nM
  surviving fraction: 1.01 ± 0.068
[1]; 5 nM
  surviving fraction: 0.961 ± 0.039
[1]; 10 nM
  surviving fraction: 0.987 ± 0.043
[1]; 50 nM
  surviving fraction: 0.993 ± 0.095
[1]; 100 nM
  surviving fraction: 1.03 ± 0.023
[1]; 500 nM
  surviving fraction: 1.01 ± 0.038
[1]; 1000 nM
  surviving fraction: 1.03 ± 0.033
[2]; 0.5 nM
  surviving fraction: 0.983 ± 0.048
[2]; 1 nM
  surviving fraction: 1.1 ± 0.24
[2]; 5 nM
  surviving fraction: 0.977 ± 0.069
[2]; 10 nM
  surviving fraction: 0.909 ± 0.045
[2]; 50 nM
  surviving fraction: 0.962 ± 0.13
[2]; 100 nM
  surviving fraction: 0.941 ± 0.12
[2]; 500 nM
  surviving fraction: 0.62 ± 0.11
[2]; 1000 nM
  surviving fraction: 0.493 ± 0.12

## CME SYNOVIAL
[1]; 0.5 nM
  surviving fraction: 1.16 ± 0.072
[1]; 1 nM
  surviving fraction: 1.25 ± 0.097
[1]; 5 nM
  surviving fraction: 1.11 ± 0.18
[1]; 10 nM
  surviving fraction: 1.11 ± 0.18
[1]; 50 nM
  surviving fraction: 0.693 ± 0.18
[1]; 100 nM
  surviving fraction: 0.556 ± 0.094
[1]; 500 nM
  surviving fraction: 0.373 ± 0.08
[1]; 1000 nM
  surviving fraction: 0.301 ± 0.015
[2]; 0.5 nM
  surviving fraction: 1.39 ± 0.037
[2]; 1 nM
  surviving fraction: 1.39 ± 0.12
[2]; 5 nM
  surviving fraction: 1.41 ± 0.074
[2]; 10 nM
  surviving fraction: 1.28 ± 0.14
[2]; 50 nM
  surviving fraction: 1.27 ± 0.08
[2]; 100 nM
  surviving fraction: 1.18 ± 0.12
[2]; 500 nM
  surviving fraction: 0.887 ± 0.1
[2]; 1000 nM
  surviving fraction: 0.285 ± 0.048
